Assays:
Assay type in all cases: cell-based
KCNQ4 = KCNQ4 (Homo sapiens, UniProt P56696); test: Automated patch clamp, activation of KCNQ4 channels; conditions: for Selectivity KCNQ4 EC50 / KCNQ2/3 EC50: ratio of EC50 values
Procedure: (§1) Electrophysiological studies of the compounds were performed using the Nanion SyncroPatch automated patch clamp platform.
(§2) Kv7 channels were evaluated using a voltage protocol in which cells were voltage-clamped at a holding potential of −110 mV. Potassium currents were activated with a series of voltage steps from −110 mV to +50 mV in 10 mV intervals with 5.5 seconds between successive voltage steps. Each voltage step was 3 seconds in duration and immediately followed by a 1 second voltage step to −120 mV to generate an inward “tail” current to allow construction of activation (G-V) curves by plotting normalized peak tail current versus the potential of the activating voltage step. To obtain normalized values, peak current amplitudes for successive depolarizing pulses were normalized against the maximum tail current amplitude generated at +50 mV (Tatulian et al., Journal of Neuroscience 2001, 21 (15)).
(§3) Data was collected on the Syncropatch platform using PatchControl software (Nanion) and processed and analyzed using DataControl Software (Nanion). Normalized percent activation was calculated and activation curves were fit with a Boltzmann function to determine the midpoint voltage of activation (G-V midpoint) for both pre-compound and post-compound conditions for each of the 384-wells of a sealchip with Pipeline Pilot (Accelrys). The difference in G-V midpoint between pre-compound and post-compound conditions (Δ V0.5) was plotted as a function of concentration and concentration-response curves were fit with a three-parameter logistic equation {Y=Bottom+(Top−Bottom)/(1+10^(Log EC50−X))} for determination of the EC50 (Graphpad Prism).

KCNQ3/5 = KCNQ3/5 (Homo sapiens, UniProt O43525+Q9NR82); test: Automated patch clamp, activation of KCNQ3/5 channels; conditions: for Selectivity KCNQ3/5 EC50 / KCNQ2/3 EC50: ratio of EC50 values
Procedure: as §1, §2, §3

human Kv7.2/7.3 channels = target: T1, human Kv7.2/7.3 channels (Homo sapiens, UniProt O43525+O43526); test: Syncropatch automated patch clamp, activation of recombinantly expressed human Kv7.2/7.3 (KCNQ2/3) channels in CHO cells; conditions: shift in G-V midpoint (Δ V0.5) vs concentration
T1 construct: expressed in transfected cells
Procedure: The in vitro effects of a compound of the present application recombinantly expressed human Kv7.2/7.3 channels are assessed on Syncropatch high throughput electrophysiology platform.
CHO cells stably expressing human Kv7.2/7.3 channels were cultured in Ham's F-12 media (Hyclone, Cat # SH30022.02) supplemented with 10% Fetal Bovine Serum, 1×MEM non-essential amino acids, and 400 μg/ml G418 at 37° C. in 5% CO2. On the day of Syncropatch, the cells were washed once in DPBS (Hyclone, Cat # SH30028.03) for approximately 30 seconds. 1 ml of 1×0.015% Trypsin-EDTA GIBCO Cat #25300-054) was added and swirled around to cover the bottom of the flask, and allowed to sit on the cells for about 4 minutes (approximately 90% of the cells were lifted by light tapping of the flask). 10 ml of cold media (Ham's F-12 media (Hyclone, Cat # SH30022.02) supplemented with 10% Fetal Bovine Serum, 1×MEM non-essential amino acids, and 400 μg/ml G418) was added to inactivate Trypsin. The cells were then triturated until a single cell suspension was achieved, and the cell count was performed. The cells were then diluted to a concentration of 5×10^5/ml and placed into the “cell hotel” on the deck of the Syncropatch at 10° C. for about 1 hour to recover. 40 μL of the cell suspension was dispensed into each well of a 384-well Syncropatch chip by the onboard pipettor at the beginning of each Syncropatch assay.
The compounds to be tested were dissolved in DMSO to give 10 mM stock solutions. […]
Kv7 channels were evaluated using a voltage protocol in which cells were voltage-clamped at a holding potential of −110 mV. […]
Data was collected on the Syncropatch platform using PatchControl software (Nanion) and processed and analyzed using DataControl Software (Nanion). Normalized percent activation was calculated and activation curves were fit with a Boltzmann function to determine the midpoint voltage of activation (G-V midpoint) for both pre-compound and post-compound conditions for each of the 384-wells of a sealchip with Pipeline Pilot (Accelrys). […]

Row | EC50 (KCNQ4) [nM] | Selectivity KCNQ4 EC50 / KCNQ2/3 EC50 (KCNQ4) | EC50 (KCNQ3/5) [nM] | Selectivity KCNQ3/5 EC50 / KCNQ2/3 EC50 (KCNQ3/5) | EC50 (human Kv7.2/7.3 channels) [nM] | Compound
1 | ≥ 10000 | VI (VI: ≥100) | 1000 to 10000 | III (III: 5 to <10) | 100 to 1000 | Cc1c(F)c(N2CCc3cc(F)ccc3C2)c(F)c(C)c1NC(=O)CC(C)(C)C [Compound 1, N-(3,5-difluoro-4-(6-fluoro-3,4-dihydroisoquinolin-2 (1H)-yl)-2,6-dimethylphenyl)-3,3-dimethylbutanamide]
2 | 100 to 1000 | IV (IV: 10 to <50) | < 100 | I (I: <1) | < 100 | C#CCN(Cc1ccc(F)cc1)c1ccc(NC(=O)OCC)c(N)c1 [Control, reference compound]

Row | Compound | EC50 (KCNQ4) [nM] | Selectivity KCNQ4 EC50 / KCNQ2/3 EC50 (KCNQ4) | EC50 (KCNQ3/5) [nM] | Selectivity KCNQ3/5 EC50 / KCNQ2/3 EC50 (KCNQ3/5) | EC50 (human Kv7.2/7.3 channels) [nM]
3 | Cc1c(F)c(NCc2ccc(F)cc2)c(F)c(C)c1NC(=O)CC(C)(C)C [Compound 2, N-(3,5-difluoro-4-((4-fluorobenzyl)amino)-2,6-dimethylphenyl)-3,3-dimethylbutanamide] | 1000 to 10000 | V (V: 50 to <100) | 100 to 1000 | IV (IV: 10 to <50) | < 100

— patent US10676437B2, “Fluorinated 4-(substituted amino)phenyl carbamate derivatives” (SciFluor Life Sciences, Inc., priority 2017, dated 2020)
